One compound from patent US11452725B2, “Chiral diaryl macrocycles and uses thereof” (TURNING POINT THERAPEUTICS, INC., priority 2015, dated 2022) can be followed below.

A value given as a limit tells only on which side of the number the result lay.

For test [1], the system named is AKT. Briefly: Immunoblotting downstream signaling, HCC78 cells. In kind it is cell-based. As to conditions: Homo sapiens; HCC78 cell line; read-out: downstream AKT phosphorylation IC50. The method, then: (§1) NSCLC cell line H2228 (harboring endogenous EML4-ALK fusion gene), HCC78 cells (harboring endogenous SLC34A2-ROS1 fusion gene), Karpas-299 cells (harboring endogenous NPM-ALK fusion gene) or SET-2 (harboring endogenous JAK2V617F activating mutation) were cultured in RPMI medium, and KM12 (harboring endogenous TPM3-TRKA fusion gene) cell line was cultured in DMEM medium, both supplemented with 10% fetal bovine serum and 100 U/mL of penicillin/streptomycin. Ba/F3 and NIH3T3 cells stably expressing ALK or ROS1 (WT or mutant) were culture as mentioned above. […] Protein lysates (approximately 20 μg) was resolved on 4-12% Bolt Bis-Tris precasted gels with MES running buffer (Life Technologies), transferred to nitrocellulose membranes using Trans-Blot Turbo Transfer System (Bio-Rad) and detected with antibodies targeting phosphorylated ALK Y1604 (Cell Signaling Technology), total ALK (Cell Signaling Technology), phosphorylated ROS1 and total ROS1 (Cell Signaling Technology), phosphorylated TRK A/B (Cell Signaling Technology), total TRKA antibody (Santa Cruz Biotechnology), phosphorylated STAT3 and STAT5, total STAT3 and STAT5 (Cell Signaling Technology), phosphorylated AKT (Cell Signaling Technology), total AKT (Cell Signaling Technology), phosphorylated ERK (Cell Signaling Technology), total ERK (Cell Signaling Technology) and Tubulin (Sigma). […]

The test system of a further test is STAT3. Description: Immunoblotting downstream signaling, HCC78 cells. In kind it is cell-based. As to conditions: Homo sapiens; HCC78 cell line; read-out: downstream STAT3 phosphorylation IC50. On the procedure:
as §1

The target of the next test is T1, DDR2 (Homo sapiens, UniProt Q16832).
T1 construct: purchased Reaction Biology Corporation (contract assay)
Briefly: Biochemical kinase assay (Reaction Biology). The conditions noted are these: 10 μM ATP.

In the next test the target is T2, TXK (Homo sapiens, UniProt P42681).
T2 construct: purchased Reaction Biology Corporation
Description: Biochemical kinase assay (Reaction Biology). As to conditions: 10 μM ATP.

The test system of another test is EGFR. Briefly: EGFR expression by immunoblotting in H2228 cells. The conditions noted are these: 4 and 24 hour exposure, 0-1000 nM. In kind it is cell-based, human. On the procedure:
NSCLC cell line H2228 (harboring endogenous EML4-ALK fusion gene) was cultured in RPMI medium supplemented with 10% fetal bovine serum and 100 U/mL of penicillin/streptomycin. Ba/F3 and NIH3T3 cells stably expressing ROS1, or TRKA, or TRKB, or TRKC (WT or mutant) were cultured as mentioned above. […] Cells were collected after treatment and lysed in RIPA buffer (50 mM Tris, pH 7.4, 150 mM NaCl, 1% NP-40, 0.5% Deoxycholate, 0.1% SDS) supplemented with 10 mM EDTA, 1× Halt protease and phosphatase inhibitors (Thermo Scientific). Protein lysates (approximately 20 μg) was resolved on 4-12% Bolt Bis-Tris precasted gels with MES running buffer (Life Technologies), transferred to nitrocellulose membranes using Trans-Blot Turbo Transfer System (Bio-Rad) and detected with antibodies targeting phosphorylated phosphorylated ROS1 and total ROS1 (Cell Signaling Technology), phosphorylated TRK A/B (Cell Signaling Technology), total TRKA antibody (Santa Cruz Biotechnology), phosphorylated SRC Y416 (Cell Signaling Technology), total SRC (Cell Signaling Technology), phosphorylated FAK Y576/577 (Cell Signaling Technology), total FAK (Cell Signaling Technology), phosphorylated paxillin Y118 (Cell Signaling Technology), total paxillin (Cell Signaling Technology), phosphorylated EGFR and total EGFR, CD44, and Tubulin (Sigma). […]

Test [2] concerns Ba/F3 EML4-ALK L1196M cell line. Description: Cell proliferation assay (CellTiter-Glo). In kind it is cell-based. The conditions noted are these: Mus musculus, 72 hours.
Test [3] has as its system Ba/F3 TEL-TRKB (ETV6-TRKB) G639R cell line. Description: Cell proliferation assay (CellTiter-Glo). The conditions noted are these: Mus musculus, BaF3; 72 hours. The test is classed as cell-based. A general note: Cellular ATP, detected with luciferase, serves as a proxy for viable cell number.
For test [4], the system named is AKT. Description: Immunoblotting downstream signaling, KM12 cells. The test is classed as cell-based. As to conditions: Homo sapiens; KM12 cell line; read-out: downstream AKT phosphorylation IC50. On the procedure: as §1
(In western blotting, separated proteins are transferred to a membrane and probed.)

Another test relates to ERK. Briefly: Immunoblotting downstream signaling, KM12 cells. The test is classed as cell-based. As to conditions: Homo sapiens; KM12 cell line; read-out: downstream ERK phosphorylation IC50. The method, then: as §1
The next test concerns the target NPM-ALK (Homo sapiens, UniProt Q9UM73). Description: In vivo pharmacodynamics: ALK phosphorylation in Karpas 299 tumors (immunoblotting). Also noted: species or system mice. On the procedure:
Mice bearing xenograft tumors were humanely euthanized and tumors were resected and snap frozen in liquid nitrogen and stored at −80° C. Frozen tumor samples were processed at 4° C. in 1× Cell Lysis Buffer (Cell Signaling Technologies) to extract proteins. SDS loading samples were prepared by adding one volume of 4×LDS Sample Buffer (Life Technologies, Inc) to three volumes of protein lysate. Tumor SDS protein samples were processed by SDS-PAGE and immunoblotted with rabbit anti-phosphorylated ALK and mouse anti-actin antibodies (Cell Signaling Technologies). The signals from immunoblot were detected by C-DiGit Blot Scanner from LI-COR and the signal intensity were quantified using the Image Studio Digit software (LI-COR).
The level of ALK phosphorylation was determined by immunoblotting combined with signal quantification by the Image Studio Digit Software. […] At the dose of 15 mg/kg, ALK phosphorylation was reduced to <10% of the control level at 3 hours post oral administration and was maintained at about 21% of the control level at 12 hours post dosing.

NPM-ALK, sequence (Q9UM73 with tags, fused parts or gaps): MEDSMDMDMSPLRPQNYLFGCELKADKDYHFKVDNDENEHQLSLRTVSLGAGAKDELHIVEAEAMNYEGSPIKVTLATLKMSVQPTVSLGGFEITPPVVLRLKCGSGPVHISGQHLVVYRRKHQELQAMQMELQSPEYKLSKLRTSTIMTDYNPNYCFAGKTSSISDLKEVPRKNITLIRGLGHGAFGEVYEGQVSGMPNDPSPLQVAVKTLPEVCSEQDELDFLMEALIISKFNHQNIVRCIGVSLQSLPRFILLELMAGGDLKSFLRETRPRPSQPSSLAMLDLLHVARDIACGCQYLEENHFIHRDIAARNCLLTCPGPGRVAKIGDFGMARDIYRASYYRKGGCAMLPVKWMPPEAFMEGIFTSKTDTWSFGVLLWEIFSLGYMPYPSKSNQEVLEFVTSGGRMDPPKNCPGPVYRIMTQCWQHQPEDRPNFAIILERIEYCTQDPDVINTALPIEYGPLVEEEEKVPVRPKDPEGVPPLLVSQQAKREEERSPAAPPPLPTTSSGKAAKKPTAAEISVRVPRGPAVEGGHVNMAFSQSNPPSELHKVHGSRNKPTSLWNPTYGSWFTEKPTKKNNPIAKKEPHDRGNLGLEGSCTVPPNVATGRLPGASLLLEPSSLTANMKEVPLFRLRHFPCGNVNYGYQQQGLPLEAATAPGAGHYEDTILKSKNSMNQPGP
T1 sequence (Q16832 22-855): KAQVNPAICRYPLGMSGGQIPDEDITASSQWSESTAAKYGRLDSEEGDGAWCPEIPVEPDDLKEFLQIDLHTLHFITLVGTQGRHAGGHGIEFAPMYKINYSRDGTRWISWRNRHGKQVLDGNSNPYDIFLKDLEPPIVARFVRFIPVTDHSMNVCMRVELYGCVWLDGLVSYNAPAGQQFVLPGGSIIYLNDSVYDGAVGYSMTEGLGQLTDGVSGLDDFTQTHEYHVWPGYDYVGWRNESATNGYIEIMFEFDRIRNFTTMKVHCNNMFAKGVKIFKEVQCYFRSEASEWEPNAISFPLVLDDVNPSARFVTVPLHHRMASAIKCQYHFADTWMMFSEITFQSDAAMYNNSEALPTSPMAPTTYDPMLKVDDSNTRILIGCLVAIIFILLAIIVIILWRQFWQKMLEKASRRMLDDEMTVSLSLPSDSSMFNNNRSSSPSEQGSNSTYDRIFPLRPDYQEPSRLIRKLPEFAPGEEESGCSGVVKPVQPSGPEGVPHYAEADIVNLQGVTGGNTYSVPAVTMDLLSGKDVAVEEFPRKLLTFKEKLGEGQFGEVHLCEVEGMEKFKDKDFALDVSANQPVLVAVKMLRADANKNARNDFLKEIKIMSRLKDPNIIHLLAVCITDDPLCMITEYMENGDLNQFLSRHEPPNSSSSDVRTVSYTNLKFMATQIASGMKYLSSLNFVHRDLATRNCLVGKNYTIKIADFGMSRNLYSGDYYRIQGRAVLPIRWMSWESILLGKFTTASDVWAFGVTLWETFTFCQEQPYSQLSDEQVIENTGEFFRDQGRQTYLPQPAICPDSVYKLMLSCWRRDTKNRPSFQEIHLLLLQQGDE
T2 sequence (P42681 whole entry): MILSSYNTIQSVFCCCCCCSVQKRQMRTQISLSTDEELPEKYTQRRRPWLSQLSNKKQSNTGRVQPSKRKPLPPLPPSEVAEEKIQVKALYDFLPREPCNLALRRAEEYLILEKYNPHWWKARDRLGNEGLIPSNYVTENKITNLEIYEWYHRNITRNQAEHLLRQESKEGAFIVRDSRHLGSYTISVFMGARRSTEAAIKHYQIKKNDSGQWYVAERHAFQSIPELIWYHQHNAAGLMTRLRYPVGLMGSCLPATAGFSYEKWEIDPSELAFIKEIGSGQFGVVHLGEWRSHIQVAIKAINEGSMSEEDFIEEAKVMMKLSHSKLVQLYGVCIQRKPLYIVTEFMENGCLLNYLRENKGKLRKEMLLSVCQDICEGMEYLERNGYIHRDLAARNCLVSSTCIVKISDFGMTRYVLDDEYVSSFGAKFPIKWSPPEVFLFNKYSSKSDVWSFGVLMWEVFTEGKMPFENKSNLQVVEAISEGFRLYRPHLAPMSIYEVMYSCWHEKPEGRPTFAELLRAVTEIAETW
Description for DDR2: (§2) Specific kinase/substrate pairs along with required cofactors were prepared in reaction buffer; 20 mM Hepes pH 7.5, 10 mM MgCl2, 1 mM EGTA, 0.02% Brij35, 0.02 mg/ml BSA, 0.1 mM Na3VO4, 2 mM DTT, 1% DMSO (for specific details of individual kinase reaction components see Supplementary Table 2). Compounds were delivered into the reaction, followed ˜20 minutes later by addition of a mixture of ATP (Sigma, St. Louis Mo.) and ^33P ATP (Perkin Elmer, Waltham Mass.) to a final concentration of 10 μM. Reactions were carried out at room temperature for 120 min, followed by spotting of the reactions onto P81 ion exchange filter paper (Whatman Inc., Piscataway, N.J.). […] IC50 values and curve fits were obtained using Prism (GraphPad Software).
Description for TXK: as §2

By IC50 is commonly meant the concentration that inhibits the measured activity by half. Regarding `C[C@H]1CNC(=O)c2cnn3ccc(nc23)N[C@H](C)c2cc(F)ccc2O1` [Compound 1, (7S,13R)-11-fluoro-7,13-dimethyl-6,7,13,14-tetrahydro-1,15-ethenopyrazolo[4,3-f][1,4,8,10]benzoxatriazacyclotridecin-4(5H)-one], the 50% inhibitory concentration (IC50) in the test on AKT [1] was 1 to 3 nM; with STAT3, 1 to 3 nM; at DDR2 it was 23 nM; at TXK, 3.17 nM; in test [2] it was 50 nM; in test [3], 0.6 nM. Also, the IC50 in the test with AKT [4] and with ERK was about 0.3 nM throughout. Besides, the EGFR expression result with EGFR was “down-regulated EGFR expression in a dose- and time-dependent manner”. For the same compound, the “ALK phosphorylation, % of the control level” value is given as under 10% at NPM-ALK (15 mg/kg BID 7 days, 3 hours post oral administration); “about 21%” on NPM-ALK (15 mg/kg BID 7 days, 12 hours post dosing); under 5% on NPM-ALK (50 mg/kg BID 7 days, 3 hours post oral administration); “about 10%” at NPM-ALK (50 mg/kg BID 7 days, 12 hours post dosing).
